The term melting point denotes the temperature, or range, at which the solid turns liquid. For orientation: EC50 means the concentration needed to bring the measured effect to its halfway point.

Molecules are shown by their SMILES. Where two headings read alike, the source gives them in different places.

1 compound from patent publication US20060106102A1, “Napththalene derivatives which inhibit the cytokine or biological activity of microphage migration inhibitory factor (mif)” (priority 2002, published 2006) can be followed below.

In series [1] the test system is recombinant human macrophage migration inhibitory factor (MIF)-induced proliferation of S112 human dermal fibroblasts. The series is described as follows: MIF-induced proliferation of S112 human dermal fibroblasts, 3H-thymidine incorporation. It counts as cell-based. How it is done: The activity of each compound was studied in a bioassay utilising MIF-induced proliferation of human dermal fibroblasts. S112 human dermal fibroblasts were propagated in RPMI/10% foetal calf serum (FCS). Prior to experimentation, cells were seeded at 10^5 cells/ml in RPMI/0.1% BSA for 18 hours. At time point zero, culture medium was replaced with RPMI/10% FCS and treatments administered. Cells were treated with recombinant human macrophage migration inhibitory factor (MIF) 50 ng/ml (1.353×10^−9 M) and/or the compound at a 1 or 1000 molar ratio to the concentration of MIF. In some experiments the compound was combined with MIF at time point −30 minutes, prior to adding at time point zero. At time point 30 hours, cells were pulsed with […]. At time point 48 hours, cells were harvested using a semi-automated cell harvester. The radioactivity incorporated into DNA was determined by liquid scintillation counting, with results expressed as [^3H] thymidine incorporation. The proliferation of untreated cells was expressed as 100% and the effect of MIF and each compound expressed in relative %.
The activity of compound 5 was studied in a bioassay utilising MIF-induced proliferation of human dermal fibroblasts. S112 human dermal fibroblasts were propagated in RPMI/10% foetal calf serum (FCS). Prior to experimentation, cells were seeded at 10^5 cells/ml in RPMII/0.1% BSA for 18 hours. At time point zero, culture medium was replaced with RPMI/10% FCS and treatments administered. Cells were treated with recombinant human macrophage migration inhibitory factor (MIF) 50 ng/ml and/or compound 5 at a 1-1000 molar ratio to the concentration of MIF. At a time point 30 hours later, cells were pulsed with 1 μCi/well of ^3H-thymidine. At a time point 48 hours after commencement of the experiment, cells were harvested using a semi-automated cell harvester. The radioactivity incorporated into DNA was determined by liquid scintillation counting, with results expressed as [^3H] thymidine incorporation.
Background: Dividing cells build labelled thymidine or BrdU into new DNA.

Series [2] deals with ex vivo splenic T cell proliferation. Put plainly: ex vivo antigen-specific splenic T cell proliferation after in vivo treatment. As to conditions: [mBSA] 10 ug/mL; cells from compound-treated versus vehicle-treated mice. The text has this: In vivo administration of such a compound might be expected to exert effects on T cell responsiveness even after the T cells have been removed from exposure to the compound, that is, if T cells were studied ex vivo after in vivo treatment with the MIF antagonist compound. To measure ex vivo antigen-specific T cell activation, spleens were removed from mice with murine antigen induced arthritis, induced as above with mBSA, at day 28 after first immunisation and a single cell suspension prepared in DMEM containing 5% FCS and 0.05% 2-mercaptoethanol. 1×10^5 cells /200 μl were cultured in triplicate in the presence or absence of mBSA (0.1, 1.0, 10 μg /ml) in 96-well plates for 48 hours (37° C., 5% CO2) The T cell proliferation response was determined by measuring ^3H-thymidine incorporation during the final 18 hr. The cells were harvested and radioactivity incorporation into the DNA was measured with a Wallac 1409 liquid scintillation counter. The means of each triplicate culture were calculated. Each experiment comprised at least three individual animals and the results presented represent the mean±SEM of groups of animals in each experiment. The percentage inhibition of T cell proliferation was calculated using the result of the ^3H-thymidine incorporation of cells from compound-treated animals divided by the ^3H-thymidine incorporation of cells from vehicle-treated animals.

Series [3] concerns antigen-specific T cell activation (splenic T lymphocytes from mBSA-immunised mice). Put plainly: antigen-specific (mBSA) activation of splenic T lymphocytes in vitro, 3H-thymidine incorporation. It counts as cell-based, C57BL6/J mice. As to conditions: Mus musculus, T-cell, read-out: EC50 (T cell activation suppressed by 50% compared to vehicle-only-treated cells). The method, then:
After a further seven (7) days mice were killed and spleens collected aseptically into Hanks buffered saline solution (HBSS). A single cell suspension was prepared in Petri dishes by flushing DMEM through the organ using a 26G needle and 2 mL syringe. The resulting cell suspension was centrifuged for 5-7 minutes and supernatant discarded. Erythrocytes were lysed using a solution containing 0.579% NH4Cl, 0.000037% EDTA, and 0.1% NaHCO3 in a 37° C. water bath. Tubes were then filled with DMEM and centrifuged for 5-7 minutes. […] The specific stimulating antigen, mBSA, was then added at 10-50 μg/mL and plates incubated for 30 hours in a 37° C., 5% CO2 incubator. Tritiated^3H-thymidine was then added at a concentration of 0.5 μCi/well for a further 18 hours. Cells were harvested on a Packard cell harvester, and the harvested material added to 750 μL/tube scintillation fluid. Scintillation counts were read on a Wallac beta-emnission counter. […] Further compounds were also tested for their ability to inhibit antigen-specific T cell activation as a marker of the inhibition of the cytokine or biological activity of MIF using this assay.

For series [4], the system named is IL-1-induced COX-2 expression. Put plainly: IL-1-induced COX-2 expression in S112 human dermal fibroblasts (MIF-dependent event), flow cytometry. In kind it is cell-based. Conditions: Homo sapiens, Fibroblast; compound 1 uM; IL-1 0.1 ng/ml, 6 hours; S112 cells; read-out: % inhibition of IL-1-induced COX2 expression (Effect). The method, then: The activity of each compound was studied in a bioassay utilising MIF-dependent activation of human dermal fibroblasts. […] IL-1-induced COX-2 expression is therefore a MIF-dependent event. […] Prior to experimentation, cells were seeded at 10^5 cells/ml in RPMI/0.1% BSA for 18 hours. […] Cells permeabilised with 0.1% saponin were sequentially labelled with a mouse anti-human COX-2 monoclonal antibody and with sheep-anti-mouse F(ab)2 fragment labelled with fluoroscein isothiocyanate. Cellular fluorescence was determined using a flow cytometer. At least 5000 events were counted for each reading, each of which was performed in duplicate, and the results expressed in mean fluorescence intensity (MFI) after subtraction of negative control-labelled cell fluorescence. The effect of each compound was determined by subtracting the IL-1+compound-treated cell MFI from the IL-1-treated cell MFI and expressed as % inhibition. In each case the % inhibition of IL-1-induced COX2 expression is shown as the mean, or mean±SEM where results are available from multiple experiments.
(In general: A flow cytometer gives signals particle by particle.)

As for `COc1cc2ccc(C(=O)O)cc2cc1OC` [Compound 4, 6,7-dimethoxy-2-naphthanoic acid], the melting point is 248 to 250 °C. Besides, in series [1] (1M ratio equivalent to MIF 50 ng/ml), the “effect on MIF-induced proliferation of human dermal fibroblasts (FIGS. 1 and 2)” value is on record as “inhibition of MIF-induced proliferation”. Further, in series [1] (Homo sapiens, Fibroblast, concentration 0.013 μM, rhMIF 50 ng/ml, S112 cells, read-out: % inhibition of proliferation compared to vehicle plus rhMIF-treated cells), the inhibition at 0.013 µM was 24%. Further, the “% inhibition of ex vivo splenic T cell proliferation” value in series [2] was 18%. The EC50 in series [3] (mBSA 10 μg/ml) stood at 14.8 µM. In addition, in series [3] (mBSA 50 μg/ml), the EC50 turned out to be 49.5 µM. Also, the inhibition at 1 µM in series [4] was 2.7%.
